The results in this text go back to BindingDB's records for doi:10.1016/j.ejmech.2014.07.015 (Tianjin University, 2014).

Residues, ends and D or L forms follow the SMILES beside them.

The assay deals with Angiotensin-converting enzyme (Homo sapiens, UniProt P12821). Briefly: Inhibition of ACE (unknown origin).
Chain of Angiotensin-converting enzyme (P12821 whole entry): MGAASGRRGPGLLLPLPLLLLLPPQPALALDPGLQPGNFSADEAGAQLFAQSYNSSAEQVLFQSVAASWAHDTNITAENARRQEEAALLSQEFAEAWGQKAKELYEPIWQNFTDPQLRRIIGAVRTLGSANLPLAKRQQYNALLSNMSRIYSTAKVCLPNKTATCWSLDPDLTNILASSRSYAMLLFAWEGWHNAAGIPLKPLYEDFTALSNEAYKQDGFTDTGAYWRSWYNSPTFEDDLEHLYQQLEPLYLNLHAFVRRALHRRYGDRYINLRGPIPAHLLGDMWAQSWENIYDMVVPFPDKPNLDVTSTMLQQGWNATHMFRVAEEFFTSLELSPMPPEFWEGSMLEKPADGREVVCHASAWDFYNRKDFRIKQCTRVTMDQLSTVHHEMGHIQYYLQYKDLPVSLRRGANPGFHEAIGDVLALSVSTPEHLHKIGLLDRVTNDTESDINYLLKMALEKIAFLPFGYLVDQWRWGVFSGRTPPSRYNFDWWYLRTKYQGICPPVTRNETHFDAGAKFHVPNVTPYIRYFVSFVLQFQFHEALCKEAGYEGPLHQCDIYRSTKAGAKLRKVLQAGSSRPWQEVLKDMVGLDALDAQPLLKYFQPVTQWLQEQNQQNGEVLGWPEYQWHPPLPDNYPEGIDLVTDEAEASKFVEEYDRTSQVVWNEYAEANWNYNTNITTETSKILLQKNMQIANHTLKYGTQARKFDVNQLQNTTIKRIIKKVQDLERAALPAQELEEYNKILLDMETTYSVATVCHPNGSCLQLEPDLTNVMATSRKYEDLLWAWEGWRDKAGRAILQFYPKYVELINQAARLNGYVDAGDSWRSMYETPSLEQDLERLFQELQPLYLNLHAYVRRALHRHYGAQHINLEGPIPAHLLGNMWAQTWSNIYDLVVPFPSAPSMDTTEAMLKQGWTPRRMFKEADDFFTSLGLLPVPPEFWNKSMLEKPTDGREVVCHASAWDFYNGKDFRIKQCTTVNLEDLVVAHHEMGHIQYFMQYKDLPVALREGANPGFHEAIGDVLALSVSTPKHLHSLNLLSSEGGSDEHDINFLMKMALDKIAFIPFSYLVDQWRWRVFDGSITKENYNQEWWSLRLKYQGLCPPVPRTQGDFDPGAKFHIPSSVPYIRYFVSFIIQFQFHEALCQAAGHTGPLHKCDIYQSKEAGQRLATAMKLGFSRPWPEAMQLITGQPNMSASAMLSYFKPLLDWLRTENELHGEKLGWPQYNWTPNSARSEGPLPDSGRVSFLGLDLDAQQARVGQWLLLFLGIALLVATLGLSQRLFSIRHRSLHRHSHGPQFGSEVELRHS
For orientation: IC50 means the concentration needed to halve the response being measured. A higher IC50 goes with weaker potency. Consider `CC[C@H](C)[C@H](N)C(=O)N[C@@H](Cc1c[nH]c2ccccc12)C(=O)O`, for which inhibition was half-maximal at 4.67 µM (IC50). In other words, the single-digit micromolar range.
The figure for `CC[C@H](C)[C@H](N)C(=O)N[C@@H](CCC(=O)O)C(=O)N1CCC[C@H]1C(=O)O` (H-Ile-Glu-Pro-OH) is 1.58 µM; for `NC(N)=NCCC[C@H](N)C(=O)N1CCC[C@H]1C(=O)O` (H-Arg-Pro-OH) it is 20.8 µM.
Next, `CC(C)C[C@H](N)C(=O)N[C@@H](CCC(=O)O)C(=O)N1CCC[C@H]1C(=O)O` (H-Leu-Glu-Pro-OH): 1.9 µM.
The figure for H-LHLPGP-OH is 1.9 µM; for H-VLPIP-OH it is 30.9 µM; for `CC[C@H](C)[C@H](N)C(=O)N[C@@H](CCCCN)C(=O)N1CCC[C@H]1C(=O)O` (H-Ile-Lys-Pro-OH) it is 6.91 µM.
H-LHLPYP-OH gave a concentration for half-maximal inhibition (IC50) of 2.29 µM.
Next, `CC(C)[C@H](N)C(=O)NCC(=O)N1CCC[C@H]1C(=O)O` (H-Val-Gly-Pro-OH): 26.3 µM; `CSCC[C@H](NC(=O)[C@@H](N)C(C)C)C(=O)N1CCC[C@H]1C(=O)O` (H-Val-Met-Pro-OH): 28.8 µM; `CC(C)C[C@H](N)C(=O)N[C@@H](Cc1ccc(O)cc1)C(=O)N1CCC[C@H]1C(=O)O` (H-Leu-Tyr-Pro-OH): 6.6 µM.
The figure for `CC(C)[C@H](N)C(=O)N[C@@H](Cc1ccc(O)cc1)C(=O)O` [Ang(3-4)] (H-Val-Tyr-OH) is 15.8 µM.
For `CC(C)[C@H](NC(=O)[C@H](C)N)C(=O)NCC(=O)N1CCC[C@H]1C(=O)O` (H-AVGP-OH), the IC50 came to 3.09 µM.
Next, `N[C@@H](Cc1c[nH]cn1)C(=O)N[C@@H](Cc1ccc(O)cc1)C(=O)O` [CHEBI:74059] (H-His-Tyr-OH): 26.3 µM; `CC[C@H](C)[C@H](N)C(=O)N[C@@H](Cc1ccc(O)cc1)C(=O)O` [(S)-2-((S)-2-Amino-3-(S)-methyl-pentanoylamino)-3-(4-hydroxy-phenyl)-propionic acid] (H-Ile-Tyr-OH): 6.16 µM.
The figure for H-SKVPP-OH is 74.1 µM; for `CC(C)C[C@H](N)C(=O)N[C@@H](CO)C(=O)N1CCC[C@H]1C(=O)O` (H-Leu-Ser-Pro-OH) it is 1.69 µM; for H-LHLPAP-OH it is 6.02 µM.
The figure for `NCC(=O)N[C@@H](Cc1c[nH]c2ccccc12)C(=O)O` [2-((S)-2-Amino-acetylamino)-3-(1H-indol-3-yl)-propionic acid] (H-Gly-Trp-OH) is 25.1 µM; for `N[C@@H](Cc1ccccc1)C(=O)N[C@@H](CCC(=O)O)C(=O)N1CCC[C@H]1C(=O)O` (H-Phe-Glu-Pro-OH) it is 12 µM.
On to `CC(C)C[C@H](N)C(=O)N[C@@H](CC(N)=O)C(=O)N1CCC[C@H]1C(=O)O` (H-Leu-Asn-Pro-OH), for which the IC50 was found to be 57.5 µM.
Consider H-VHLAP-OH, for which the IC50 was 4.46 µM.
Molecule `CC(C)C[C@H](N)C(=O)N[C@@H](Cc1c[nH]c2ccccc12)C(=O)O` [CHEBI:73590] had a 50% inhibitory concentration (IC50) of 17.3 µM. This IC50 lies about 3.9-fold higher than the previous one.
The figure for `CC(C)C[C@H](N)C(=O)N[C@@H](CCCCN)C(=O)N1CCC[C@H]1C(=O)O` (H-Leu-Lys-Pro-OH) is 3.98 µM; for H-LHLYLP-OH it is 19 µM.
Next, `CC(C)[C@H](N)C(=O)N[C@@H](Cc1ccccc1)C(=O)O` [(S)-2-((S)-2-Amino-3-methyl-butyrylamino)-3-phenyl-propionic acid] (H-Val-Phe-OH): 9.12 µM; `N[C@@H](CC(=O)O)C(=O)N[C@@H](Cc1ccc(O)cc1)C(=O)O` [CHEBI:73455] (H-Asp-Tyr-OH): 100 µM.
The figure for `NC(=O)C[C@H](N)C(=O)N[C@@H](Cc1ccccc1)C(=O)O` (H-Asn-Phe-OH) is 46.7 µM; for `C[C@H](N)C(=O)N[C@@H](Cc1ccccc1)C(=O)O` [2-(2-Amino-propionylamino)-3-phenyl-propionic acid] it is 75.8 µM.
Molecule `N[C@@H](CO)C(=O)N[C@@H](Cc1ccc(O)cc1)C(=O)O` [CHEBI:73652] (H-Ser-Tyr-OH) yielded an IC50 of 66 µM.
Next, `NCCCC[C@H](N)C(=O)N1CCC[C@H]1C(=O)O` [CHEBI:74567] (H-Lys-Pro-OH): 21.8 µM.
The figure for `N[C@@H](Cc1ccccc1)C(=O)N[C@@H](Cc1ccc(O)cc1)C(=O)O` [CHEBI:73637] (H-Phe-Tyr-OH) is 25.1 µM; for `NCCCC[C@H](N)C(=O)N[C@@H](Cc1ccccc1)C(=O)O` [CHEBI:73605] it is 28.1 µM; for H-VHLPP-OH it is 18.1 µM.
The figure for `CC(C)[C@H](NC(=O)[C@@H](N)Cc1ccccc1)C(=O)N[C@@H](C)C(=O)N1CCC[C@H]1C(=O)O` (H-FVAP-OH) is 10 µM; for `CC(C)[C@H](N)C(=O)N[C@@H](CO)C(=O)N1CCC[C@H]1C(=O)O` (H-Val-Ser-Pro-OH) it is 10 µM.
Molecule `C[C@H](NC(=O)[C@@H](N)Cc1ccccc1)C(=O)N1CCC[C@H]1C(=O)O` (H-Phe-Ala-Pro-OH) came in with an IC50 of 3.8 µM.
Next, H-VLPYP-OH: 36.3 µM; H-LAYFYP-OH: 64.5 µM; `C[C@@H](O)[C@H](N)C(=O)N[C@@H](Cc1ccccc1)C(=O)O` [CHEBI:74862] (H-Thr-Phe-OH): 89.1 µM.
Next, `NC(=O)C[C@H](N)C(=O)N[C@@H](Cc1ccc(O)cc1)C(=O)O` [CHEBI:73427] (H-Asn-Tyr-OH): 32.3 µM; `C[C@H](NC(=O)[C@H](Cc1c[nH]c2ccccc12)NC(=O)CN)C(=O)N1CCC[C@H]1C(=O)O` (H-GWAP-OH): 3.89 µM.
The figure for `N=C(N)NCCC[C@H](NC(=O)CN)C(=O)N1CCC[C@H]1C(=O)O` (H-Gly-Arg-Pro-OH) is 19.9 µM; for `CC[C@H](C)[C@H](N)C(=O)N[C@@H](C)C(=O)N1CCC[C@H]1C(=O)O` [Ile-Ala-Pro] (H-Ile-Ala-Pro-OH) it is 2.69 µM.
`CC(C)[C@H](N)C(=O)N[C@@H](CCCNC(=N)N)C(=O)N1CCC[C@H]1C(=O)O` (H-Val-Arg-Pro-OH) returned a 50% inhibitory concentration (IC50) of 2.18 µM.
Next, `NC(N)=NCCC[C@H](N)C(=O)N[C@@H](Cc1c[nH]c2ccccc12)C(=O)O` (H-Arg-Trp-OH): 15.8 µM; H-FFVAP-OH: 6.02 µM; `CC(C)C[C@H](N)C(=O)N[C@@H](CCC(N)=O)C(=O)N1CCC[C@H]1C(=O)O` [CHEBI:73270] (H-Leu-Gln-Pro-OH): 1.9 µM.
Next, H-DYGLYP-OH: 61.6 µM.
Next, `N=C(N)NCCC[C@H](N)C(=O)N[C@@H](Cc1ccccc1)C(=O)O`: 93.3 µM.
Molecule `CC(C)C[C@H](N)C(=O)N[C@@H](C)C(=O)N1CCC[C@H]1C(=O)O` (H-Leu-Ala-Pro-OH) yielded an IC50 of 3.46 µM. This IC50 lies about 27-fold lower than the previous one.
The figure for `CC(C)C[C@H](NC(=O)[C@@H](N)CC(=O)O)C(=O)N1CCC[C@H]1C(=O)O` (H-Asp-Leu-Pro-OH) is 4.78 µM; for H-AVPYP-OH it is 79.4 µM; for `CC(C)[C@H](N)C(=O)N[C@@H](CO)C(=O)N[C@@H](CO)C(=O)N1CCC[C@H]1C(=O)O` (H-VSSP-OH) it is 10 µM.
Regarding `CC(C)C[C@H](N)C(=O)N[C@@H](Cc1ccc(O)cc1)C(=O)O`, the IC50 came out at 32.3 µM.
The figure for `C[C@H](N)C(=O)N[C@@H](Cc1c[nH]c2ccccc12)C(=O)O` [(S)-2-((S)-2-Amino-propionylamino)-3-(1H-indol-3-yl)-propionic acid] (H-Ala-Trp-OH) is 12 µM; for `CSCC[C@H](N)C(=O)N[C@@H](Cc1ccccc1)C(=O)O` [CHEBI:74708] (H-Met-Phe-OH) it is 44.6 µM.
`CSCC[C@H](N)C(=O)N[C@@H](CC(N)=O)C(=O)N1CCC[C@H]1C(=O)O` (H-Met-Asn-Pro-OH) returned an IC50 of 66 µM.
Next, H-LHLPLP-OH: 3.71 µM; `C[C@H](N)C(=O)N[C@@H](Cc1ccc(O)cc1)C(=O)O` [(S)-2-((S)-2-Amino-propionylamino)-3-(4-hydroxy-phenyl)-propionic acid] (H-Ala-Tyr-OH): 19 µM.
The figure for `NC(=O)CC[C@H](NC(=O)[C@@H](N)Cc1ccccc1)C(=O)N1CCC[C@H]1C(=O)O` (H-Phe-Gln-Pro-OH) is 12 µM; for H-RPQIPP-OH it is 45.7 µM.
The figure for `CSCC[C@H](N)C(=O)N[C@@H](Cc1c[nH]c2ccccc12)C(=O)O` [CHEBI:74709] (H-Met-Trp-OH) is 10 µM; for `N=C(N)NCCC[C@H](N)C(=O)N[C@@H](Cc1ccc(O)cc1)C(=O)O` [CHEBI:73822] (H-Arg-Tyr-OH) it is 51.2 µM.
For H-LHLWLP-OH, the IC50 is 8.91 µM.
Next, H-IAYKP-OH: 2.18 µM.
